Measured values published in ChEMBL document CHEMBL2029199, “Pyrazole and pyrimidine phenylacylsulfonamides as dual Bcl-2/Bcl-xL antagonists” (Bioorg Med Chem Lett, 2012).
Active and inactive are the calls of the source. The calls are words filed in the database; no cut-off is given here.

Columns and labels:
Bcl-2-like protein 1 = Bcl-2-like protein 1 (Homo sapiens, UniProt Q07817); experiment: Inhibition of biotin-labelled Bcl-xL using [FAM]-IWIAQELRRIGDEFNAYY-NH2 as substrate after 60 mins by FRET analysis
[1] = molecular target: Apoptosis regulator Bcl-2 (Homo sapiens, UniProt P10415); experiment: Inhibition of GST-tagged Bcl2 using [FAM]-IWIAQELRRIGDEFNAYY-NH2 as substrate after 60 mins by fluorescence polarization assay
MV4-11 [2] = experiment: Induction of BAK oligomerization in mitochondria isolated from human MV411 cells at 0.1 uM after 40 mins by Western blotting analysis; format: functional
[3] = Cytotoxicity against human SU-DHL4 cells after 72 hrs by firefly luciferase-based assay in presence of 2% fetal calf serum; format: functional, cell-based, SUD4; settings: SU-DHL-4, 72 h
MV4-11 [4] = experiment: Cytotoxicity against human MV411 cells after 72 hrs by firefly luciferase-based assay in presence of 2% fetal calf serum; format: functional, cell-based; settings: MV4-11, 72 h
MV4-11 [5] = experiment: Induction of cytochrome C release in mitochondria isolated from human MV411 cells at 0.1 uM after 40 mins by Western blotting analysis; format: functional
MV4-11 [6] = experiment: Induction of BAK oligomerization in mitochondria isolated from human MV411 cells at 1 uM after 40 mins by Western blotting analysis; format: functional
MV4-11 [7] = experiment: Induction of cytochrome C release in mitochondria isolated from human MV411 cells after 40 mins by Western blotting analysis; format: functional
MV4-11 [8] = experiment: Induction of BAK oligomerization in mitochondria isolated from human MV411 cells after 40 mins by Western blotting analysis; format: functional
MV4-11 [9] = experiment: Induction of mitochondria depolarization in human MV411 cells at 3 uM after 7 hrs by flow cytometry; format: functional
MV4-11 [10] = experiment: Cytotoxicity against human MV411 cells after 72 hrs by firefly luciferase-based assay in presence of 10% fetal calf serum; format: functional, cell-based; settings: MV4-11, 72 h

Chain of Apoptosis regulator Bcl-2 (P10415 whole entry): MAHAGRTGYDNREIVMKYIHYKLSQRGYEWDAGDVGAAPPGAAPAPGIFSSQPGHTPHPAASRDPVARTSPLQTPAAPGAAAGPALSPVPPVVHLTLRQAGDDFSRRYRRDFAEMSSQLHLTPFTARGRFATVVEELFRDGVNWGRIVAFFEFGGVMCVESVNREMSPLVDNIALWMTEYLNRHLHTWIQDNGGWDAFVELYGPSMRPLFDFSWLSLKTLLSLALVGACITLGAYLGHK
Chain of Bcl-2-like protein 1 (Q07817 whole entry): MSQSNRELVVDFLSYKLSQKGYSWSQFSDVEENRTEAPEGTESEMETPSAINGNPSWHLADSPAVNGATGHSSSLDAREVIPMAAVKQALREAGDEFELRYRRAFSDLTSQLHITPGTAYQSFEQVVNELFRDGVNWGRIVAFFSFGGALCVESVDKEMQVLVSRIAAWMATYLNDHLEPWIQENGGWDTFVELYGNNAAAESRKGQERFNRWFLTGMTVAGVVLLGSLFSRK

Row | IC50 (Bcl-2-like protein 1) [nM] | IC50 [1] [nM] | Structure (SMILES) | other results
1 | 640 | 4190 | CCOC(=O)c1nn(-c2ccccc2)c(C)c1-c1ccc(C(=O)NS(=O)(=O)c2ccc3ccccc3c2)cc1C(=O)N1CCc2ccccc2C1 | 
2 | 15 | 71 | CCCCc1c(-c2ccc(C(=O)NS(=O)(=O)c3ccc4ccccc4c3)cc2C(=O)N2CCc3ccccc3C2)c(CO)nn1-c1cccc(CO)c1 | Activity (MV4-11 [2]): Active; IC50 [3]: > 10000 nM; IC50 (MV4-11 [4]): 5060 nM; Activity (MV4-11 [5]): Active
3 | 11 | 61 | CCCCc1c(-c2ccc(C(=O)NS(=O)(=O)c3ccc4ccccc4c3)cc2C(=O)N2CCc3ccccc3C2)c(CO)nn1-c1ccccc1 | 
4 | 35 | 22 | CCCCc1c(-c2ccc(C(=O)NS(=O)(=O)c3ccc4ccccc4c3)cc2C(=O)N2CCc3ccccc3C2)c(CO)nn1-c1ccc(Oc2ccc(Cl)cc2)cc1 | 
5 | 250 | 150 | CCCN(CCC)c1nccc(-c2ccc(C(=O)NS(=O)(=O)c3ccc4ccccc4c3)cc2C(=O)N2CCc3ccccc3C2)n1 | Activity (MV4-11 [6]): inactive
6 | 9 | 9 | CCCN(CCC)c1ncc(Cl)c(-c2ccc(C(=O)NS(=O)(=O)c3ccc4cccc(Cl)c4c3)cc2C(=O)N2Cc3ccccc3C[C@H]2CO)n1 | Activity (MV4-11 [7]): Dose-dependent effect; Activity (MV4-11 [8]): Dose-dependent effect; IC50 [3]: 3790 nM; IC50 (MV4-11 [4]): 330 nM; Activity (MV4-11 [9]): 25%
7 | 120 | 110 | CCCCN(CCCC)c1ncc(C)c(-c2ccc(C(=O)NS(=O)(=O)c3ccc4ccccc4c3)cc2C(=O)N2CCc3ccccc3C2)n1 | 
8 | 140 | 190 | CCCCc1c(-c2ccc(C(=O)NS(=O)(=O)CC)cc2C(=O)N2CCc3ccccc3C2)c(CO)nn1-c1ccc(Oc2cccc(Cl)c2)cc1 | 
9 | 42 | 660 | CCCCc1c(-c2ccc(C(=O)NS(=O)(=O)c3ccc4ccccc4c3)cc2C(=O)N2CCc3ccccc3C2)c(C(=O)OCC)nn1-c1ccccc1 | 
10 | 18 | 8 | CCCCc1c(-c2ccc(C(=O)NS(=O)(=O)c3ccc4ccccc4c3)cc2C(=O)N2CCc3ccccc3C2)c(CO)nn1-c1ccc(Oc2cccc(Cl)c2)cc1 | Activity (MV4-11 [2]): Active; IC50 [3]: 2350 nM; IC50 (MV4-11 [4]): 700 nM; Activity (MV4-11 [5]): Active; Activity (MV4-11 [9]): 25%
11 | 6 |  | CCCCc1c(-c2ccc(C(=O)NS(=O)(=O)c3ccc4ccccc4c3)cc2C(=O)N2CCc3ccccc3C2)c(CO)nn1-c1ccc(CCO)cc1 | 
12 | 7 | 14 | CCCCc1c(-c2ccc(C(=O)NS(=O)(=O)c3ccc4ccccc4c3)cc2C(=O)N2CCc3ccccc3C2)c(CO)nn1-c1ccc(CCCO)cc1 | 

Continued, compound first:

Row | Structure (SMILES) | IC50 (Bcl-2-like protein 1) [nM] | IC50 [1] [nM] | other results
13 | CCCCc1c(-c2ccc(C(=O)NS(=O)(=O)CC[Si](C)(C)C)cc2C(=O)N2CCc3ccccc3C2)c(CO)nn1-c1ccccc1 |  | 190 | 
14 | CCCCc1c(-c2ccc(C(=O)NS(=O)(=O)c3ccc4ccccc4c3)cc2C(=O)N2CCc3ccccc3C2)c(C(=O)OCC)nn1-c1ccc(OC)cc1 | 48 | 1790 | 
15 | CCCCc1c(-c2ccc(C(=O)NS(=O)(=O)c3ccc4ccccc4c3)cc2C(=O)N2CCc3ccccc3C2)c(C(=O)OCC)nn1-c1ccc(Oc2ccccc2)cc1 | 55 |  | 
16 | CCCCc1c(-c2ccc(C(=O)NS(=O)(=O)c3ccc4ccccc4c3)cc2C(=O)N2Cc3ccccc3C[C@H]2CO)c(CO)nn1-c1ccccc1 |  | 11 | 
17 | CCCCc1c(-c2ccc(C(=O)NS(=O)(=O)c3ccc4cccc(Cl)c4c3)cc2C(=O)N2CCc3ccccc3C2)c(CO)nn1-c1ccc(Oc2cccc(Cl)c2)cc1 | 15 | 6 | IC50 [3]: 2020 nM; IC50 (MV4-11 [4]): 580 nM
18 | CCCN(CCC)c1ncc(Cl)c(-c2ccc(C(=O)NS(=O)(=O)c3ccc4cccc(Cl)c4c3)cc2C(=O)N2Cc3ccccc3C[C@H]2CN)n1 | 14 | 15 | Activity (MV4-11 [7]): Dose-dependent effect; Activity (MV4-11 [8]): Dose-dependent effect; IC50 [3]: 6640 nM; IC50 (MV4-11 [4]): 330 nM; IC50 (MV4-11 [10]): 730 nM; Activity (MV4-11 [9]): 25%
19 | CCCCCS(=O)(=O)NC(=O)c1ccc(-c2c(CO)nn(-c3ccc(Oc4cccc(Cl)c4)cc3)c2CCCC)c(C(=O)N2CCc3ccccc3C2)c1 | 120 | 65 | 
20 | CCCCOc1ccc(-n2nc(CO)c(-c3ccc(C(=O)NS(=O)(=O)c4ccc5ccccc5c4)cc3C(=O)N3CCc4ccccc4C3)c2CCCC)cc1 | 26 | 45 | IC50 [3]: 2490 nM; IC50 (MV4-11 [4]): 1430 nM
21 | CCCCN(CCCC)c1nccc(-c2ccc(C(=O)NS(=O)(=O)c3ccc4ccc(I)cc4c3)cc2C(=O)N2CCc3ccccc3C2)n1 | 970 | 140 | 
22 | CCCCN(CCCC)c1nccc(-c2ccc(C(=O)NS(=O)(=O)c3ccc4ccccc4c3)cc2C(=O)N2Cc3ccccc3C[C@H]2CN)n1 | 160 | 430 | 
23 | CCCCN(CCCC)c1nccc(-c2ccc(C(=O)NS(=O)(=O)c3ccc4ccccc4c3)cc2C(=O)N2CCc3ccccc3C2)n1 | 500 | 700 | 
24 | CCCCc1c(-c2ccc(C(=O)NS(=O)(=O)c3ccc4ccccc4c3)cc2C(=O)N2CCc3ccccc3C2)c(CO)nn1-c1ccc(Oc2ccccc2)cc1 | 35 |  | 
25 | CCCCc1c(-c2ccc(C(=O)NS(=O)(=O)c3ccc4ccccc4c3)cc2C(=O)N2CCc3ccccc3C2)c(CO)nn1-c1ccc(-c2ccccc2)cc1 | 13 | 7 | 
26 | CCCCN(CCCC)c1ncc(Cl)c(-c2ccc(C(=O)NS(=O)(=O)c3ccc4ccccc4c3)cc2C(=O)N2CCc3ccccc3C2)n1 | 230 | 160 | 
27 | CCCCc1c(-c2ccc(C(=O)NS(=O)(=O)c3ccc4ccccc4c3)cc2C(=O)N2CCc3ccccc3C2)c(C(=O)O)nn1-c1ccccc1 | 30 | 170 | 
28 | CCCCN(CCCC)c1nccc(-c2ccc(C(=O)NS(=O)(=O)c3ccc4c(c3)CCN4Cc3ccc(Cl)c(Cl)c3)cc2C(=O)N2CCc3ccccc3C2)n1 | 710 | 120 | 
29 | CCCCN(CCCC)c1nccc(-c2ccc(C(=O)NS(=O)(=O)c3ccc4cccc(Cl)c4c3)cc2C(=O)N2Cc3ccccc3C[C@H]2CO)n1 | 130 | 160 | 
30 | CCCCc1c(-c2ccc(C(=O)NS(=O)(=O)c3ccc4ccccc4c3)cc2C(=O)N2Cc3ccccc3C[C@H]2CN)c(CO)nn1-c1ccccc1 | 7 | 24 | 
31 | CCCCc1c(-c2ccc(C(=O)NS(=O)(=O)c3ccc4ccccc4c3)cc2C(=O)N2CCc3ccccc3C2)c(C(=O)OCC)nn1-c1cccc(Oc2ccccc2)c1 | 470 | 140 | 
32 | CCCCN(CCCC)c1nccc(-c2ccc(C(=O)NS(=O)(=O)c3ccc4cccc(Cl)c4c3)cc2C(=O)N2CCc3ccccc3C2)n1 | 480 | 120 | 
